{"source": "patent US20260256792A1", "about": "“TREATMENT OF CHRONIC SPONTANEOUS URTICARIA BY ADMINISTERING (R)-2-[3-[4-AMINO-3-(2-FLUORO-4-PHENOXY-PHENYL)PYRAZOLO[3,4-D]PYRIMIDIN-1-YL]PIPERIDINE-1-CARBONYL]-4-METHYL-4-[4-(OXETAN-3-YL)PIPERAZIN-1-YL]PENT-2-ENENITRILE” (priority 2023, published 2026)", "test_system": "moderate-to-severe chronic spontaneous urticaria (CSU)", "test": "Phase 2 CSU study: itch severity score over 7 days (ISS7)", "format": "in vivo, human", "from_the_text": "The study comprises a 12 week, randomized, double-blind, placebo-controlled, multi-center, dose-ranging efficacy and safety phase, followed by a 40 week open label extension (OLE) phase (see FIG. 1). The study consists of three phases and an optional OLE phase. […] Clinically, CSU is characterized by the spontaneous and recurrent appearance of pruritic hives. The proposed primary endpoints were the UAS7 at Week 12 in EU and EU reference countries and the ISS7 in the US. Regardless of where a participant was from, all assessments were the same. The UAS7 score is a composite score containing both the HSS7 and the ISS7. This allowed a global assessment of the two key components of urticaria: hives and itch. […] The UAS is a validated PRO measure. […] The daily UAS scores range from 0 to 6 point/day. […] Patients were to complete the UAS using the e-diary. […] The following secondary endpoints were to be analyzed using the same approach as for the primary endpoint: • Change from baseline in UAS7 at Week 4 • Change from baseline in UAS7 at Week 12 (for US and US reference countries) • Change from baseline in ISS7 at Week 12 (except US and US reference countries) • Change from baseline in HSS7 at Week 12", "key": {"[1]": {"conditions": "Week 2, 400 mg BID, Omalizumab-Naïve"}, "[2]": {"conditions": "Week 2, 400 mg BID, Prior Omalizumab Use"}, "[3]": {"conditions": "Week 2, 400 mg QPM, Omalizumab-Naïve"}, "[4]": {"conditions": "Week 2, 400 mg QPM, Prior Omalizumab Use"}, "[5]": {"conditions": "Week 2, 400 mg TID, Omalizumab-Naïve"}, "[6]": {"conditions": "Week 2, 400 mg TID, Prior Omalizumab Use"}, "[7]": {"conditions": "Week 3, 400 mg BID, Omalizumab-Naïve"}, "[8]": {"conditions": "Week 3, 400 mg BID, Prior Omalizumab Use"}, "[9]": {"conditions": "Week 3, 400 mg QPM, Omalizumab-Naïve"}, "[10]": {"conditions": "Week 3, 400 mg QPM, Prior Omalizumab Use"}, "[11]": {"conditions": "Week 3, 400 mg TID, Omalizumab-Naïve"}, "[12]": {"conditions": "Week 3, 400 mg TID, Prior Omalizumab Use"}, "[13]": {"conditions": "Week 4, 400 mg BID, Omalizumab-Naïve"}, "[14]": {"conditions": "Week 4, 400 mg BID, Prior Omalizumab Use"}, "[15]": {"conditions": "Week 4, 400 mg QPM, Omalizumab-Naïve"}, "[16]": {"conditions": "Week 4, 400 mg QPM, Prior Omalizumab Use"}, "[17]": {"conditions": "Week 4, 400 mg TID, Omalizumab-Naïve"}}}
{"smiles": "CC(C)(C=C(C#N)C(=O)N1CCC[C@@H](n2nc(-c3ccc(Oc4ccccc4)cc3F)c3c(N)ncnc32)C1)N1CCN(C2COC2)CC1", "note": "[rilzabrutinib, (R)-2-[3-[4-amino-3-(2-fluoro-4-phenoxy-phenyl)pyrazolo[3,4-d]pyrimidin-1-yl]piperidine-1-carbonyl]-4-methyl-4-[4-(oxetan-3-yl)piperazin-1-yl]pent-2-enenitrile]", "values": [{"measurement": "ISS7 Percent change from baseline Mean (SD)", "setting": "[1]", "result": "−34.40 (31.27) %"}, {"measurement": "ISS7 Percent change from baseline Median", "setting": "[1]", "result": "−25.06", "unit": "%"}, {"measurement": "ISS7 Change from baseline Mean (SD)", "setting": "[2]", "result": "−7.00 (7.04)"}, {"measurement": "ISS7 Change from baseline Median", "setting": "[2]", "result": "−5.50"}, {"measurement": "ISS7 Mean (SD)", "setting": "[2]", "result": "10.83 (6.85)"}, {"measurement": "ISS7 Median", "setting": "[2]", "result": 13.50}, {"measurement": "ISS7 Percent change from baseline Mean (SD)", "setting": "[2]", "result": "−38.76 (40.94) %"}, {"measurement": "ISS7 Percent change from baseline Median", "setting": "[2]", "result": "−28.17", "unit": "%"}, {"measurement": "ISS7 Change from baseline Mean (SD)", "setting": "[3]", "result": "−3.84 (4.75)"}, {"measurement": "ISS7 Change from baseline Median", "setting": "[3]", "result": "−3.00"}, {"measurement": "ISS7 Median", "setting": "[3]", "result": 12.00}, {"measurement": "ISS7 Percent change from baseline Mean (SD)", "setting": "[3]", "result": "−22.08 (27.52) %"}, {"measurement": "ISS7 Percent change from baseline Median", "setting": "[3]", "result": "−17.11", "unit": "%"}, {"measurement": "ISS7 Change from baseline Mean (SD)", "setting": "[4]", "result": "−12.00 (NC)"}, {"measurement": "ISS7 Change from baseline Median", "setting": "[4]", "result": "−12.00"}, {"measurement": "ISS7 Mean (SD)", "setting": "[4]", "result": "9.00 (NC)"}, {"measurement": "ISS7 Median", "setting": "[4]", "result": 9.00}, {"measurement": "ISS7 Percent change from baseline Mean (SD)", "setting": "[4]", "result": "−57.14 (NC) %"}, {"measurement": "ISS7 Percent change from baseline Median", "setting": "[4]", "result": "−57.14", "unit": "%"}, {"measurement": "ISS7 Change from baseline Mean (SD)", "setting": "[5]", "result": "−7.29 (6.09)"}, {"measurement": "ISS7 Change from baseline Median", "setting": "[5]", "result": "−7.00"}, {"measurement": "ISS7 Mean (SD)", "setting": "[5]", "result": "8.40 (5.82)"}, {"measurement": "ISS7 Median", "setting": "[5]", "result": 8.00}, {"measurement": "ISS7 Percent change from baseline Mean (SD)", "setting": "[5]", "result": "−46.12 (36.57) %"}, {"measurement": "ISS7 Percent change from baseline Median", "setting": "[5]", "result": "−46.89", "unit": "%"}, {"measurement": "ISS7 Mean (SD)", "setting": "[6]", "result": "5.50 (6.95)"}, {"measurement": "ISS7 Median", "setting": "[6]", "result": 4.00}, {"measurement": "ISS7 Percent change from baseline Mean (SD)", "setting": "[6]", "result": "−69.74 (33.53) %"}, {"measurement": "ISS7 Percent change from baseline Median", "setting": "[6]", "result": "−77.08", "unit": "%"}, {"measurement": "ISS7 Change from baseline Mean (SD)", "setting": "[7]", "result": "−6.29 (5.74)"}, {"measurement": "ISS7 Change from baseline Median", "setting": "[7]", "result": 5.00}, {"measurement": "ISS7 Mean (SD)", "setting": "[7]", "result": "9.16 (6.09)"}, {"measurement": "ISS7 Median", "setting": "[7]", "result": 9.00}, {"measurement": "ISS7 Percent change from baseline Mean (SD)", "setting": "[7]", "result": "−40.77 (35.75) %"}, {"measurement": "ISS7 Percent change from baseline Median", "setting": "[7]", "result": "−26.67", "unit": "%"}, {"measurement": "ISS7 Change from baseline Mean (SD)", "setting": "[8]", "result": "−8.31 (8.28)"}, {"measurement": "ISS7 Change from baseline Median", "setting": "[8]", "result": "−9.00"}, {"measurement": "ISS7 Mean (SD)", "setting": "[8]", "result": "9.53 (7.26)"}, {"measurement": "ISS7 Percent change from baseline Mean (SD)", "setting": "[8]", "result": "−44.35 (43.62) %"}, {"measurement": "ISS7 Percent change from baseline Median", "setting": "[8]", "result": "−47.22", "unit": "%"}, {"measurement": "ISS7 Change from baseline Mean (SD)", "setting": "[9]", "result": "−4.77 (4.84)"}, {"measurement": "ISS7 Change from baseline Median", "setting": "[9]", "result": "−3.67"}, {"measurement": "ISS7 Mean (SD)", "setting": "[9]", "result": "11.60 (4.68)"}, {"measurement": "ISS7 Percent change from baseline Mean (SD)", "setting": "[9]", "result": "−27.79 (26.72) %"}, {"measurement": "ISS7 Percent change from baseline Median", "setting": "[9]", "result": "−23.81", "unit": "%"}, {"measurement": "ISS7 Change from baseline Mean (SD)", "setting": "[10]", "result": "−12.00 (NC)"}, {"measurement": "ISS7 Change from baseline Median", "setting": "[10]", "result": "−12.00"}, {"measurement": "ISS7 Mean (SD)", "setting": "[10]", "result": "9.00 (NC)"}, {"measurement": "ISS7 Median", "setting": "[10]", "result": 9.00}, {"measurement": "ISS7 Percent change from baseline Mean (SD)", "setting": "[10]", "result": "−57.14 (NC) %"}, {"measurement": "ISS7 Percent change from baseline Median", "setting": "[10]", "result": "−57.14", "unit": "%"}, {"measurement": "ISS7 Change from baseline Mean (SD)", "setting": "[11]", "result": "−7.34 (6.48)"}, {"measurement": "ISS7 Change from baseline Median", "setting": "[11]", "result": "−7.00"}, {"measurement": "ISS7 Mean (SD)", "setting": "[11]", "result": "8.34 (5.42)"}, {"measurement": "ISS7 Median", "setting": "[11]", "result": 8.40}, {"measurement": "ISS7 Percent change from baseline Mean (SD)", "setting": "[11]", "result": "−49.02 (33.06) %"}, {"measurement": "ISS7 Percent change from baseline Median", "setting": "[11]", "result": "−48.53", "unit": "%"}, {"measurement": "ISS7 Mean (SD)", "setting": "[12]", "result": "5.50 (5.50)"}, {"measurement": "ISS7 Median", "setting": "[12]", "result": 5.00}, {"measurement": "ISS7 Percent change from baseline Mean (SD)", "setting": "[12]", "result": "−66.98 (26.87) %"}, {"measurement": "ISS7 Percent change from baseline Median", "setting": "[12]", "result": "−64.58", "unit": "%"}, {"measurement": "ISS7 Change from baseline Mean (SD)", "setting": "[13]", "result": "−6.94 (6.13)"}, {"measurement": "ISS7 Change from baseline Median", "setting": "[13]", "result": "−5.83"}, {"measurement": "ISS7 Mean (SD)", "setting": "[13]", "result": "8.32 (6.02)"}, {"measurement": "ISS7 Median", "setting": "[13]", "result": 7.00}, {"measurement": "ISS7 Percent change from baseline Mean (SD)", "setting": "[13]", "result": "−44.87 (37.61) %"}, {"measurement": "ISS7 Percent change from baseline Median", "setting": "[13]", "result": "−41.67", "unit": "%"}, {"measurement": "ISS7 Change from baseline Mean (SD)", "setting": "[14]", "result": "−11.80 (8.35)"}, {"measurement": "ISS7 Change from baseline Median", "setting": "[14]", "result": "−14.00"}, {"measurement": "ISS7 Mean (SD)", "setting": "[14]", "result": "6.80 (8.53)"}, {"measurement": "ISS7 Median", "setting": "[14]", "result": 1.00}, {"measurement": "ISS7 Percent change from baseline Mean (SD)", "setting": "[14]", "result": "−64.22 (45.05) %"}, {"measurement": "ISS7 Percent change from baseline Median", "setting": "[14]", "result": "−93.33", "unit": "%"}, {"measurement": "ISS7 Change from baseline Mean (SD)", "setting": "[15]", "result": "−4.99 (5.13)"}, {"measurement": "ISS7 Change from baseline Median", "setting": "[15]", "result": "−4.00"}, {"measurement": "ISS7 Mean (SD)", "setting": "[15]", "result": "11.39 (4.79)"}, {"measurement": "ISS7 Percent change from baseline Mean (SD)", "setting": "[15]", "result": "−28.81 (27.96) %"}, {"measurement": "ISS7 Percent change from baseline Median", "setting": "[15]", "result": "−23.81", "unit": "%"}, {"measurement": "ISS7 Change from baseline Mean (SD)", "setting": "[16]", "result": "−13.00 (NC)"}, {"measurement": "ISS7 Change from baseline Median", "setting": "[16]", "result": "−13.00"}, {"measurement": "ISS7 Mean (SD)", "setting": "[16]", "result": "8.00 (NC)"}, {"measurement": "ISS7 Median", "setting": "[16]", "result": 8.00}, {"measurement": "ISS7 Percent change from baseline Mean (SD)", "setting": "[16]", "result": "−61.90 (NC) %"}, {"measurement": "ISS7 Percent change from baseline Median", "setting": "[16]", "result": "−61.90", "unit": "%"}, {"measurement": "ISS7 Change from baseline Mean (SD)", "setting": "[17]", "result": "−8.30 (5.13)"}, {"measurement": "ISS7 Change from baseline Median", "setting": "[17]", "result": "−8.00"}, {"measurement": "ISS7 Mean (SD)", "setting": "[17]", "result": "7.79 (5.03)"}, {"measurement": "ISS7 Median", "setting": "[17]", "result": 7.50}, {"measurement": "ISS7 Percent change from baseline Mean (SD)", "setting": "[17]", "result": "−51.09 (29.31) %"}, {"measurement": "ISS7 Percent change from baseline Median", "setting": "[17]", "result": "−50.00", "unit": "%"}, {"measurement": "ISS7 Change from baseline Mean (SD)", "setting": "Week 4, 400 mg TID, Prior Omalizumab Use", "result": "−10.83 (7.32)"}]}
